System: 855422-203-R-J1-PDC complex spheroid viability
Assay: Anticancer human tumor 855422-203-R-J1-PDC patient-derived bladder carcinoma cell line growth inhibition [POLQ]
Conditions: for IC50: curve of first compound; for viability, T/C: stronger effect = lower value
Procedure, shortened: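 Growth inhibition in 3D: complex spheroids (tumor PDC, HUVEC, MSC) treated with POLQ inhibitor combinations; where Cmax unknown, highest tested concentration 10 microM, except SN-38 at 1 microM.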

[1] = second compound 0.0316 µM, first compound 0.00316 µM
[2] = second compound 0.0316 µM, first compound 0.01 µM
[3] = second compound 0.0316 µM, first compound 0.0316 µM
[4] = second compound 0.0316 µM, first compound 0.1 µM
[5] = second compound 0.0316 µM, first compound 0.316 µM
[6] = second compound 0.0316 µM, first compound 1 µM
[7] = second compound 0.1 µM, first compound 0.00316 µM
[8] = second compound 0.1 µM, first compound 0.01 µM
[9] = second compound 0.1 µM, first compound 0.0316 µM
[10] = second compound 0.1 µM, first compound 0.1 µM
[11] = second compound 0.1 µM, first compound 0.316 µM
[12] = second compound 0.1 µM, first compound 1 µM
[13] = second compound 0.316 µM, first compound 0.00316 µM
[14] = second compound 0.316 µM, first compound 0.01 µM
[15] = second compound 0.316 µM, first compound 0.0316 µM
[16] = second compound 0.316 µM, first compound 0.1 µM
[17] = second compound 0.316 µM, first compound 0.316 µM
[18] = second compound 0.316 µM, first compound 1 µM
[19] = second compound 1 µM, first compound 0.00316 µM
[20] = second compound 1 µM, first compound 0.01 µM
[21] = second compound 1 µM, first compound 0.0316 µM
[22] = second compound 1 µM, first compound 0.1 µM
[23] = second compound 1 µM, first compound 0.316 µM
[24] = second compound 1 µM, first compound 1 µM
[25] = second compound 3.16 µM, first compound 0.00316 µM
[26] = second compound 3.16 µM, first compound 0.01 µM
[27] = second compound 3.16 µM, first compound 0.0316 µM
[28] = second compound 3.16 µM, first compound 0.1 µM
[29] = second compound 3.16 µM, first compound 0.316 µM
[30] = second compound 3.16 µM, first compound 1 µM
[31] = second compound 10 µM, first compound 0.00316 µM
[32] = second compound 10 µM, first compound 0.01 µM
[33] = second compound 10 µM, first compound 0.0316 µM
[34] = second compound 10 µM, first compound 0.1 µM
[35] = second compound 10 µM, first compound 0.316 µM
[36] = second compound 10 µM, first compound 1 µM
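Note: spheroids exposed to compounds for seven days before readout.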

Q: Which results are given for `C=CCn1c(=O)c2cnc(Nc3ccc(N4CCN(C)CC4)cc3)nc2n1-c1cccc(C(C)(C)O)n1` + Nc1ccc(C#CCN(C(=O)Cc2ncc(C(F)(F)F)cc2C(F)(F)F)c2ccc(F)cc2)nn1?
A: IC50 (second compound 0.0316 µM): > 1000 nM; IC50 (second compound 0.1 µM): > 1000 nM; IC50 (second compound 0.316 µM): > 1000 nM; IC50 (second compound 1 µM): > 1000 nM; IC50 (second compound 3.16 µM): > 1000 nM; IC50 (second compound 10 µM): > 1000 nM; viability, T/C [1]: 96.4%; viability, T/C [2]: 152%; viability, T/C [3]: 113%; viability, T/C [4]: 85.5%; viability, T/C [5]: 113%; viability, T/C [6]: 204%; viability, T/C [7]: 97%; viability, T/C [8]: 127%; viability, T/C [9]: 110%; viability, T/C [10]: 101%; viability, T/C [11]: 114%; viability, T/C [12]: 160%; viability, T/C [13]: 110%; viability, T/C [14]: 134%; viability, T/C [15]: 102%; viability, T/C [16]: 107%; viability, T/C [17]: 110%; viability, T/C [18]: 219%; viability, T/C [19]: 94.4%; viability, T/C [20]: 144%; viability, T/C [21]: 103%; viability, T/C [22]: 112%; viability, T/C [23]: 118%; viability, T/C [24]: 193%; viability, T/C [25]: 102%; viability, T/C [26]: 112%; viability, T/C [27]: 107%; viability, T/C [28]: 115%; viability, T/C [29]: 126%; viability, T/C [30]: 198%; viability, T/C [31]: 104%; viability, T/C [32]: 101%; viability, T/C [33]: 96.9%; viability, T/C [34]: 122%; viability, T/C [35]: 109%; viability, T/C [36]: 161%

Q: Which results are given for `CCCS(=O)(=O)Nc1ccc(F)c(C(=O)c2c[nH]c3ncc(-c4ccc(Cl)cc4)cc23)c1F` + Nc1ccc(C#CCN(C(=O)Cc2ncc(C(F)(F)F)cc2C(F)(F)F)c2ccc(F)cc2)nn1?
A: IC50 (second compound 0.0316 µM): 5930 nM; IC50 (second compound 0.1 µM): 5880 nM; IC50 (second compound 0.316 µM): 6200 nM; IC50 (second compound 1 µM): 5980 nM; IC50 (second compound 3.16 µM): 6020 nM; IC50 (second compound 10 µM): 5890 nM; viability, T/C [3]: 101%; viability, T/C [4]: 116%; viability, T/C [5]: 92.3%; viability, T/C [6]: 103%; viability, T/C (second compound 0.0316 µM, first compound 3.16 µM): 112%; viability, T/C (second compound 0.0316 µM, first compound 10 µM): 4.15%; viability, T/C [9]: 99%; viability, T/C [10]: 117%; viability, T/C [11]: 109%; viability, T/C [12]: 107%; viability, T/C (second compound 0.1 µM, first compound 3.16 µM): 103%; viability, T/C (second compound 0.1 µM, first compound 10 µM): 4.49%; viability, T/C [15]: 116%; viability, T/C [16]: 113%; viability, T/C [17]: 93.1%; viability, T/C [18]: 106%; viability, T/C (second compound 0.316 µM, first compound 3.16 µM): 109%; viability, T/C (second compound 0.316 µM, first compound 10 µM): 9.19%; viability, T/C [21]: 106%; viability, T/C [22]: 106%; viability, T/C [23]: 96.2%; viability, T/C [24]: 106%; viability, T/C (second compound 1 µM, first compound 3.16 µM): 109%; viability, T/C (second compound 1 µM, first compound 10 µM): 5.86%; viability, T/C [27]: 93.5%; viability, T/C [28]: 108%; viability, T/C [29]: 101%; viability, T/C [30]: 101%; viability, T/C (second compound 3.16 µM, first compound 3.16 µM): 103%; viability, T/C (second compound 3.16 µM, first compound 10 µM): 9.79%; viability, T/C [33]: 94%; viability, T/C [34]: 102%; viability, T/C [35]: 101%; viability, T/C [36]: 112%; viability, T/C (second compound 10 µM, first compound 3.16 µM): 99.8%; viability, T/C (second compound 10 µM, first compound 10 µM): 7.62%

Q: `CCc1c2c(nc3ccc(O)cc13)-c1cc3c(c(=O)n1C2)COC(=O)[C@]3(O)CC` + Nc1ccc(C#CCN(C(=O)Cc2ncc(C(F)(F)F)cc2C(F)(F)F)c2ccc(F)cc2)nn1 was tested. Which IC50 (second compound 0.0316 µM) did it give?
A: 7.28 nM

Q: And the IC50 (second compound 0.1 µM)?
A: 6.82 nM

Q: And the IC50 (second compound 0.316 µM)?
A: 7.42 nM

Q: And the IC50 (second compound 1 µM)?
A: 7.43 nM

Q: And the IC50 (second compound 3.16 µM)?
A: 5.79 nM

Q: What about the IC50 (second compound 10 µM) of the same molecule?
A: 6.31 nM

Q: And the viability, T/C [1]?
A: 96.9%

Q: And the viability, T/C [2]?
A: 31.4%

Q: What about the viability, T/C [3] of the same molecule?
A: 12.5%

Q: And the viability, T/C [4]?
A: 5.91%

Q: What about the viability, T/C [5] of the same molecule?
A: 4.85%

Q: And the viability, T/C [6]?
A: 2.42%

Q: And the viability, T/C [7]?
A: 100%

Q: What about the viability, T/C [8] of the same molecule?
A: 24.3%

Q: What about the viability, T/C [9] of the same molecule?
A: 10.2%

Q: What about the viability, T/C [10] of the same molecule?
A: 7.32%

Q: What about the viability, T/C [11] of the same molecule?
A: 4.65%

Q: What about the viability, T/C [12] of the same molecule?
A: 2.23%

Q: What about the viability, T/C [13] of the same molecule?
A: 96.2%

Q: And the viability, T/C [14]?
A: 33.6%

Q: And the viability, T/C [15]?
A: 11.4%

Q: What about the viability, T/C [16] of the same molecule?
A: 6.7%

Q: What about the viability, T/C [17] of the same molecule?
A: 4.41%

Q: What about the viability, T/C [18] of the same molecule?
A: 2.32%

Q: And the viability, T/C [19]?
A: 94.7%

Q: What about the viability, T/C [20] of the same molecule?
A: 34.5%

Q: And the viability, T/C [21]?
A: 8.52%

Q: And the viability, T/C [22]?
A: 7.09%

Q: And the viability, T/C [23]?
A: 4.98%

Q: And the viability, T/C [24]?
A: 3.55%

Q: What about the viability, T/C [25] of the same molecule?
A: 71.9%

Q: And the viability, T/C [26]?
A: 29.9%

Q: And the viability, T/C [27]?
A: 12.9%

Q: What about the viability, T/C [28] of the same molecule?
A: 7.49%

Q: And the viability, T/C [29]?
A: 5.5%

Q: What about the viability, T/C [30] of the same molecule?
A: 2.82%

Q: What about the viability, T/C [31] of the same molecule?
A: 86.3%

Q: And the viability, T/C [32]?
A: 24.2%

Q: What about the viability, T/C [33] of the same molecule?
A: 14.3%

Q: And the viability, T/C [34]?
A: 8.16%

Q: What about the viability, T/C [35] of the same molecule?
A: 5.98%

Q: And the viability, T/C [36]?
A: 2.43%
